Laboratory results as given in ChEMBL document CHEMBL3867437, “Oryzamides A-E, Cyclodepsipeptides from the Sponge-Derived Fungus Nigrospora oryzae PF18” (J Nat Prod, 2016).
Values after ≈ are worked out from the molar mass of the structure shown.

Columns and labels:
[1] = Cytotoxicity against human HeLa cells after 48 hrs by MTT assay; assay type: functional, cell-based
Escherichia coli = experiment: Antibacterial activity against Escherichia coli ATCC 25922 after 24 hrs by spectrophotometric analysis; assay type: functional; settings: ATCC 25922, 24 h
Staphylococcus aureus [2] = experiment: Antibacterial activity against methicillin-sensitive Staphylococcus aureus ATCC 25923 after 24 hrs by spectrophotometric analysis; assay type: functional; settings: ATCC 25923, 24 h
Staphylococcus aureus [3] = experiment: Antibacterial activity against methicillin-resistant Staphylococcus aureus ATCC 43300 after 24 hrs by spectrophotometric analysis; assay type: functional; settings: ATCC 43300, 24 h

| Compound | IC50 [1] | MIC (Escherichia coli) | MIC (Staphylococcus aureus [2]) | MIC (Staphylococcus aureus [3]) |
| --- | --- | --- | --- | --- |
| CCCCCC[C@H](C)[C@@H]1CC(=O)NCC(=O)N[C@@H](C(C)C)C(=O)N[C@H](CC(C)C)C(=O)N[C@@H](C)C(=O)N[C@@H](Cc2ccc(O)cc2)C(=O)O1 | 12.4 µM | – | – | – |
| O=C(N[C@H](CO)[C@H](O)c1ccc([N+](=O)[O-])cc1)C(Cl)Cl [CHLORAMPHENICOL] | – | 2 µg/mL (≈ 6.19 µM) | 2 µg/mL (≈ 6.19 µM) | 4 µg/mL (≈ 12.4 µM) |
| CCCCCC[C@H](C)[C@@H]1CC(=O)NCC(=O)N[C@@H](C(C)C)C(=O)N[C@H](CC(C)C)C(=O)N[C@@H](C)C(=O)N[C@@H](CCSC)C(=O)O1 | 31.3 µM | – | – | – |
| CCCCCC[C@H](C)[C@@H]1CC(=O)NCC(=O)N[C@@H](C(C)C)C(=O)N[C@H](CC(C)C)C(=O)N[C@@H](C)C(=O)N[C@@H](CC(C)C)C(=O)O1 | 25.7 µM | – | – | – |
